Data set [1] concerns the target T1, hERG potassium channel [hERG钾离子通道] (Homo sapiens, UniProt Q12809).
T1 construct: expressed in transfected cells; host or cells: HEK293 (stably transfected)
The data set is described as follows: hERG potassium channel, whole-cell patch clamp (Example 73). It counts as cell-based. In general terms: The hERG channel carries a current that helps repolarise heart muscle cells.

Data set [2] in a line: Liver microsome metabolic stability (Example 75). It counts as in vitro ADME. To be noted: 0.5 mg/mL liver microsomal protein, 1μM, NADPH, 37℃. On the technique in general: Liver microsomes are a subcellular fraction often used to study metabolism.
Data set [3] has as its target T2, β-catenin/BCL9 protein-protein [β-catenin/BCL9蛋白-蛋白] (Homo sapiens, UniProt P35222).
T2 construct: β-catenin(1-781)
T2 sequence (P35222 1-781): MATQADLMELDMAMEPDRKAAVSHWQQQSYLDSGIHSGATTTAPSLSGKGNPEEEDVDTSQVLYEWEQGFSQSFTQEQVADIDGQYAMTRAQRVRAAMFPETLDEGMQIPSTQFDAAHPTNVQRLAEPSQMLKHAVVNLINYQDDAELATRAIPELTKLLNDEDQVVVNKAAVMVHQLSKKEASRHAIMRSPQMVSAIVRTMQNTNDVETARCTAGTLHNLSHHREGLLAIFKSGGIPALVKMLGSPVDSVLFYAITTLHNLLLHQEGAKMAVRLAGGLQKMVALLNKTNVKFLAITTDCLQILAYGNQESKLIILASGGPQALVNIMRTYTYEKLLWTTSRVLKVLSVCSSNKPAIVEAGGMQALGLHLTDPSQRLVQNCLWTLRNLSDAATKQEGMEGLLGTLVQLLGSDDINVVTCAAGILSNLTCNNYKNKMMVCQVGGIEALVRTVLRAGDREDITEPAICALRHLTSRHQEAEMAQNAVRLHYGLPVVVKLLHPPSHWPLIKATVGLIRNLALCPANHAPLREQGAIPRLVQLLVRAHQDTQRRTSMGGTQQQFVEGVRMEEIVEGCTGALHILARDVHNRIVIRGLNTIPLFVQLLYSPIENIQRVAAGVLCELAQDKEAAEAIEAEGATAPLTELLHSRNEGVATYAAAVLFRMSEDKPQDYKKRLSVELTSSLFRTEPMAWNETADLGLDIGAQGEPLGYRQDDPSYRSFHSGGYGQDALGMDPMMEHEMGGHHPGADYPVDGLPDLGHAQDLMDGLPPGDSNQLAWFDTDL
The experiment in a line: β-catenin/BCL9 protein-protein affinity, fluorescence polarisation (Example 71). The data set is classed as binding. To be noted: better than compound c. Background: Fluorescence polarisation rises when a labelled molecule tumbles more slowly, as on binding a larger partner.

Data set [4] relates to CT26 colon cancer cells in BALB/c mice [CT26结肠癌细胞]. The data set is described as follows: In vivo experiment 1: CT26 colon cancer mouse model, II-25 and II-27 (Example 76). To be noted: 30mg/kg once daily; for inhibition of tumour growth: after 5 days of dosing.
Data set [5] deals with HEK293 human normal cells [HEK293人正常细胞]. The conditions noted are these: 10μM.
Data set [6] deals with HCT-116, CT-26, SW480, A549, RKO cells [人结肠癌细胞HCT-116、人结肠癌细胞CT-26、人结肠癌细胞SW480、人肺癌细胞A549、人结肠腺癌细胞RKO]. The experiment in a line: CCK-8 antiproliferative activity of II-39, cancer cell panel (Example 72, part 2). The data set is classed as cell-based, human. To be noted: 10μM.
Data set [7] relates to CT26 colon cancer cells in BALB/c mice [CT26结肠癌细胞]. The data set is described as follows: In vivo experiment 2: CT26 colon cancer mouse model, II-39 (Example 76).
For data set [8], the system named is CT-26 cells. The data set is described as follows: CCK-8 antiproliferative activity of II-39, CT-26. The data set is classed as cell-based, human. The conditions noted are these: 10μM.
[9] abbreviates: whole-cell patch clamp, HEK293 cells stably transfected, room temperature, read-out: hERG IC50.

Molecules are shown by their SMILES. pIC50: −log10 of the molar value. Read-outs that look alike come from different tables or passages of the source.

T1 sequence (Q12809 whole entry): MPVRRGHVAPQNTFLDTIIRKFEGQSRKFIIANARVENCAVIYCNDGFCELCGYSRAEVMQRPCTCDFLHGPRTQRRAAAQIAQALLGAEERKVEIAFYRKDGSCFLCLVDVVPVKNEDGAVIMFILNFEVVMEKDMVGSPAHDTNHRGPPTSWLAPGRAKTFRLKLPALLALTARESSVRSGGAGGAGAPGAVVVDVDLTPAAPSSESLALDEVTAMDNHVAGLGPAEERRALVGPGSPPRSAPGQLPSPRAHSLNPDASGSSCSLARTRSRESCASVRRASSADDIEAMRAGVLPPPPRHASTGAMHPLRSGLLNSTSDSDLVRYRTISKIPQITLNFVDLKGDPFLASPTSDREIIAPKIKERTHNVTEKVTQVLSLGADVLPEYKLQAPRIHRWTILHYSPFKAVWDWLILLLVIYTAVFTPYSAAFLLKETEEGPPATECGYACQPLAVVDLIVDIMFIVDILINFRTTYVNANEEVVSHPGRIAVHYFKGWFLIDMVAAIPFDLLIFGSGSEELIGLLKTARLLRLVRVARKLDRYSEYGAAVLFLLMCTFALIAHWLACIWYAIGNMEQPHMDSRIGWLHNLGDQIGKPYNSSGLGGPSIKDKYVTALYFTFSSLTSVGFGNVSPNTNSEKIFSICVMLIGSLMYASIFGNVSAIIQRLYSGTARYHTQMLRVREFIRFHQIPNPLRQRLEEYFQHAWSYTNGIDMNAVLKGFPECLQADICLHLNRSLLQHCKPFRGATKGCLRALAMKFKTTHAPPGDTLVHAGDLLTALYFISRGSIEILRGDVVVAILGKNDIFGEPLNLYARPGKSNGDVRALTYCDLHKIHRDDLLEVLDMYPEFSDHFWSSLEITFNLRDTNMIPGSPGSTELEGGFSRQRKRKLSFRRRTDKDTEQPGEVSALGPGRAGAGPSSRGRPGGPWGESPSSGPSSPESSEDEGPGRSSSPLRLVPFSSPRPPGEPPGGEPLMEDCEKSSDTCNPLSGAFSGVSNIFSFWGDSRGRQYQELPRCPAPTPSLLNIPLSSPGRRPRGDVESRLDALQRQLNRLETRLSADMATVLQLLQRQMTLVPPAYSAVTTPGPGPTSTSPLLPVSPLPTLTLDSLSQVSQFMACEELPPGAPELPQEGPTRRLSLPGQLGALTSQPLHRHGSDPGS

For orientation: pIC50 means −log10 of the IC50, conventionally taken in molar units. As for `CC(C)c1ccc(-c2cccc(S(=O)(=O)N3CCCC(c4cccc(OC(C)(C)C(=O)O)c4)C3)c2)cc1` (stereo not shown) [化合物II-13, 2-(3-(1-((4'-异丙基-[1,1'-联苯基]-3-基)磺酰基)哌啶-3-基)苯氧基)-2-甲基丙酸], in data set [1] (setting [9]), the negative-log IC50 (pIC50) was less than 5.00. For the same molecule, in data set [2] (Table 4), the “liver microsome metabolic stability” value is “肝微粒体代谢稳定”. The “affinity activity compared with reference compound c” value in data set [3] is recorded as “亲和活性更优”.

In the case of `Cc1ccc(-c2cccc(S(=O)(=O)N3CCCC(c4cccc(OC(C)(C)C(=O)N5CCNCC5)c4)C3)c2)cc1C.Cl` (stereo not shown) [化合物II-25, 4-(2-(3-(1-((3',4'-二甲基-[1,1'-联苯]-3-基)磺酰基)哌啶-3-基)苯氧基)-2-甲基丙酰基)哌嗪-1-氯化铵], in data set [4], the tolerability / safety result is reported as “动物耐受,安全性良好” and the “inhibition of tumour growth” value is “可显著抑制小鼠体内肿瘤的生长”. The negative-log IC50 (pIC50) in data set [1] was less than 5.00. In addition, the “affinity activity compared with reference compound c” value in data set [3] was “亲和活性更优”.

Regarding `Cc1ccc(-c2cccc(S(=O)(=O)N3CCCC(c4cccc(OC(C)(C)C(=O)NS(=O)(=O)c5ccccc5)c4)C3)c2)cc1C` (stereo not shown) [化合物II-27, 2-(3-(1-((3',4'-二甲基-[1,1'-联苯基]-3-基)磺酰基)哌啶-3-基)苯氧基)-2-甲基-N-(苯磺酰基))丙酰胺], in data set [4], the tolerability / safety entry is “动物耐受,安全性良好” and the “inhibition of tumour growth” value is listed as “可显著抑制小鼠体内肿瘤的生长”. Also, in data set [1] (setting [9]), the pIC50 is less than 5.00. Also, in data set [2] (Table 4), the “liver microsome metabolic stability” value is reported as “肝微粒体代谢稳定”. In data set [3], the “affinity activity compared with reference compound c” value is “亲和活性更优”.

Take `CC(C)c1ccc(-c2cccc(S(=O)(=O)N3CCCC(c4cccc(OC(C)(C)C(=O)NS(=O)(=O)c5ccccc5)c4)C3)c2)cc1` (stereo not shown) [化合物II-28, 2-(3-(1-((4'-异丙基-[1,1'-联苯基]-3-基)磺酰基)哌啶-3-基)苯氧基)-2-甲基-N-(苯磺酰基)丙酰胺]: the pIC50 in data set [1] (setting [9]) is less than 5.00. In addition, the “liver microsome metabolic stability” value in data set [2] (Table 4) is given as “肝微粒体代谢稳定”. Also, in data set [3], the “affinity activity compared with reference compound c” value is on record as “亲和活性更优”.

For `CC(C)c1ccc(-c2cccc(S(=O)(=O)N3CCCC(c4cccc(OC(C)(C)C(=O)NS(=O)(=O)c5ccc(C(F)(F)F)cc5)c4)C3)c2)cc1` (stereo not shown) [化合物II-39, 2-(3-(1-((4'-异丙基-[1,1'-联苯]-3-基)磺酰基)哌啶-3-基(苯氧基)-2-甲基-N-((4-(三氟甲基)苯基)磺酰)丙酰胺], the “effect on normal cells” value in data set [5] was “没有影响”. In addition, the anti-colon-cancer activity entry in data set [6] is on record as “表现出较好的抗结肠癌活性”. Further, in data set [7] (II-39 30mg/kg i.p. once daily), the body weight result is given as “未观察到小鼠体重有明显减轻” and the tolerability / safety entry was “动物耐受,安全性良好”. Moreover, the “tumour inhibition in combination with PD-1 antibody” value in data set [7] (II-39 30mg/kg i.p. once daily + PD-1 antibody 10mg/kg i.p. twice a week) is on record as “肿瘤得到进一步的抑制”. In data set [7] (II-39 30mg/kg intraperitoneal once daily), the “inhibition of colon cancer growth” value is reported as “可以很好的抑制结肠癌的生长”. Moreover, the TGI in data set [7] (combination: II-39 30mg/kg i.p. once daily + PD-1 antibody 10mg/kg i.p. twice a week) is given as 81.1%. Moreover, in data set [1] (setting [9]), the pIC50 was less than 5.00. Further, the “liver microsome metabolic stability” value in data set [2] (Table 5) is listed as “肝微粒体代谢稳定”. Also, the “antiproliferative activity compared with ICG-001” value in data set [8] is “显著的优于阳性对照药ICG-001”.

Source of the values: patent CN116444420A, “β-catenin/BCL9蛋白蛋白相互作用的小分子抑制剂及其应用” (Shanghai Pharmaceutical Industry Research Institute Co ltd, priority 2021, dated 2023).
